# Experimental data published in patent publication US7169574B2, “Fluorescence detection of proteases or peptidases” (Institut National de la Sante et de la Recherche Medicale …, priority 2000, dated 2007).
# Several values for one entry are separate records, joined by “and”; a condition that tells them apart may be missing. Equal entries are not always repeated. Numbered stars: 1 amine (or outer) side, 2 acyl side, 3 side chain; on linkers, the order of the positions; unused ones are H or OH. Square brackets hold non-standard residues; d marks the D form. Primed or numbered codes have the meaning given here. Ends that are not written are not given here. PyA″ = pyrenylalanine, O=C([C@H](Cc1ccc2ccc3cccc4ccc1c2c34)N[*:1])[*:2]; Phe(4-NO2) = N[C@@H](Cc1ccc([N+](=O)[O-])cc1)C(=O)O
# What was measured:
# [1] = molecular target: T1, ECE (Homo sapiens, UniProt P42892); assay: HPLC analysis of products formed on incubation with ECE; format: biochemical; conditions: single cleavage at the PyA-pNF peptide bond
# T1 construct: made in house; host or cells: Cos-1 cells or CHO cells
# T1 sequence (P42892 1-754 isoform P42892-3): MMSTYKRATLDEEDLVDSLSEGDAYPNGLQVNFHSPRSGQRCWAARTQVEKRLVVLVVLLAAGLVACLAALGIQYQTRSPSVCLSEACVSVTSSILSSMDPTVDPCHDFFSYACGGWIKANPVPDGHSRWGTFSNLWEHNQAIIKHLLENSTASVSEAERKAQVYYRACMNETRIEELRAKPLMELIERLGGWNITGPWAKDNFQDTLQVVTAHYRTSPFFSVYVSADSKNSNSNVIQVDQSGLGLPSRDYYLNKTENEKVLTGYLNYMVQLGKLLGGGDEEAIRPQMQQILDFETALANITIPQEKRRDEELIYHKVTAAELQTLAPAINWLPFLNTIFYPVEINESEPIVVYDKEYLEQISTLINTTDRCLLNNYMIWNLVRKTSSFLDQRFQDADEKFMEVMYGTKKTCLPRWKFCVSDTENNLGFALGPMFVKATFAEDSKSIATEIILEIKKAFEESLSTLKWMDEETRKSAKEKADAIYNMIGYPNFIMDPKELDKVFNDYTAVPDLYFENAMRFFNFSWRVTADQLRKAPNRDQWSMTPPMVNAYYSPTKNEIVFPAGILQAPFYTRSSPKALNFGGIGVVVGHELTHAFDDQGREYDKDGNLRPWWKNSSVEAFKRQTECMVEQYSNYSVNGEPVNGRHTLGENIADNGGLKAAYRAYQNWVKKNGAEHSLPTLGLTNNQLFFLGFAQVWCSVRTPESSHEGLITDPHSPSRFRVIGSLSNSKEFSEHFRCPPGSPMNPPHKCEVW
# Method: With regard to the products formed, the analysis thereof was carried out, in order to verify the substrate selectivity, by HPLC on a nucleosil C18 column, 7 μm/300 Å (4.6×70 mm), using a buffer B (0.038% of TFA in CH3CN/H2O, 9/1 by vol.) and a gradient of 40–47% of buffer B in 10 minutes (flow rate 1 ml/min).
# [2] = molecular target: T2, endothelin-converting enzyme (ECE) (Homo sapiens, UniProt P42892); assay: Fluorimetric ECE activity assay with fluorescent peptide substrates (96-well plates); format: biochemical; conditions: 50 mM Tris-maleate buffer, pH 6.5; calculated using the ENZFITTER program; read-out: Km (affinity constant of the enzyme for a substrate)
# T2 construct: made in house; host or cells: Cos-1 cells or CHO cells
# T2 sequence (P42892 1-754 isoform P42892-3): T1 sequence (P42892 1-754 isoform P42892-3)
# Method: Various preparations containing ECE can be used, such as, for example, recombinant human ECE-1c expressed in Cos-1 cells (Shimada et al., J. Biol. Chem. (1994) 269, 18275–18278) or CHO cells (Xu et al. Cell (1994) 78, 473–485).
# In all cases, the presence of the enzyme is tested by Western blotting using an antibody and its concentration is evaluated by comparison with the purified enzyme.
# The ECE activity is determined in 96-well plates, generally under the following conditions:
# 100 μl of 50 mM Tris-maleate buffer, pH 6.5, 20 μM or 5 μM of fluorescent peptide 1s or 2s and 10 μl of a solution of ECE diluted as a function of its purity and such that the cleavage of the fluorescent substrate remains less than 5%. […] The reaction is stopped in various ways, for example heating to 90° C., abrupt cooling to 4° C., adding an organic solvent such as dioxane to 20% of the final volume, and then the reading is performed using a fluorimeter (λex=340 nm; λem=400 nm) optionally coupled to the automated analysis system. The use of a network fluorimeter considerably further increases the sensitivity of the assay by reading the fluorescence at 377 nm. […]
# The KI values for the inhibitors can be determined automatically using the degradation percentages at various concentrations and comparison with a standard range. […]
# [3] = Stability of the fluorescence of the metabolites formed by ECE; format: physicochemical
# From the text: The measurement of this intensity, related to a standard curve established with mixtures of the substrate and of the fluorescent metabolite formed, therefore makes it possible either to evaluate the inhibitory capacity as percentage inhibition at a set given concentration of the product P, or to precisely determine its IC50 and then its KI using the Km of the substrate and several concentrations of the product P. The extreme sensitivity of the assay makes it possible to operate in very small volumes (100 μl) with concentrations of the order of 20 μM of the substrate 1s (that is to say 2 nmole corresponding to 4.43 μg per assay) or 5 μM of the substrate 2s. The test can therefore be very easily used in 96 wells plates or more, making it possible to automate it with automatic determination of the KI values when the reading fluorimeter is connected to a computer having suitable commercial software.
# [4] = molecular target: T1, ECE; assay: ECE inhibition test, fluorescence reading on 96-well microplate (Examples 3 and 4); format: biochemical; conditions: for fluorescence intensity measured for each well: excitation 340 nm, emission 400 nm, gain 85, low value = strong inhibition, blank 67/68, control 1081/1094
# Method: 100 μl of 50 mM Tris-maleate buffer, pH 6.5, 20 μM or 5 μM of fluorescent peptide 1s or 2s and 10 μl of a solution of ECE diluted as a function of its purity and such that the cleavage of the fluorescent substrate remains less than 5%. […] The reaction is stopped in various ways, for example heating to 90° C., abrupt cooling to 4° C., adding an organic solvent such as dioxane to 20% of the final volume, and then the reading is performed using a fluorimeter (λex=340 nm; λem=400 nm) optionally coupled to the automated analysis system. […] The controls are performed in the presence of all the reagents but without ECE or with ECE inactivated beforehand by heating at 90° C. for 5 minutes.
# The inhibitory behavior of several compounds was assessed by reproducing the protocol described in Example 2.
# The specific conditions selected for the assays appear below:
# Preincubation is carried out for 10 minutes at 37° C. The ECE substrate is then added at an amount of 10 μM. The entire mixture is incubated for between 20 minutes and 1 hour at 37C and the reaction is then stopped either by cooling or by adding dioxane (20 μl).
# The reading on cytofluor is performed at 4° C. with the following specificities: excitation 340 nm, emission 400 nm and with a gain of 85.
# The assays are performed on a 96-well microplate.
# The compounds were tested at two concentrations.
fluorescence intensity measured for each well ([4]; compound at 5 × 10^−6 M),fluorescence intensity measured for each well ([4]; compound at 10^−6 M),Molecule,fluorescence of the metabolite over time [3],also measured
–,–,"Ac-Ile-Ile-PyA-pNF-Asn-Thr-Pro-Glu-His-Val-Val-Pro-Tyr-Gly-Leu-Gly-Ser-COOH (Ac-II[PyA″][Phe(4-NO2)]NTPEHVVPYGLGS-OH; SMILES CC[C@H](C)[C@H](NC(C)=O)C(=O)N[C@H](C(=O)N[C@@H](Cc1ccc2ccc3cccc4ccc1c2c34)C(=O)N[C@@H](Cc1ccc([N+](=O)[O-])cc1)C(=O)N[C@@H](CC(N)=O)C(=O)N[C@H](C(=O)N1CCC[C@H]1C(=O)N[C@@H](CCC(=O)O)C(=O)N[C@@H](Cc1c[nH]cn1)C(=O)N[C@H](C(=O)N[C@H](C(=O)N1CCC[C@H]1C(=O)N[C@@H](Cc1ccc(O)cc1)C(=O)NCC(=O)N[C@@H](CC(C)C)C(=O)NCC(=O)N[C@@H](CO)C(=O)O)C(C)C)C(C)C)[C@@H](C)O)[C@@H](C)CC) [peptide 1s, fluorogenic ECE substrate]",–,metabolites produced when incubated with ECE [1]: only two metabolites; Km [2]: 22.1 ± 0.9 µM
–,–,Ac-Arg-Pro-Lys-Gln-Glu-PyA [peptide 2m],not modified over several hours,–
–,–,"Ac-Ser-Gly-PyA-Lys-Ala-Phe-Ala-pNF-Gly-Lys NH2 (Ac-SG[PyA″]KAFA[Phe(4-NO2)]GK-NH2; SMILES CC(=O)N[C@@H](CO)C(=O)NCC(=O)N[C@@H](Cc1ccc2ccc3cccc4ccc1c2c34)C(=O)N[C@@H](CCCCN)C(=O)N[C@@H](C)C(=O)N[C@@H](Cc1ccccc1)C(=O)N[C@@H](C)C(=O)N[C@@H](Cc1ccc([N+](=O)[O-])cc1)C(=O)NCC(=O)N[C@@H](CCCCN)C(N)=O) [peptide 3s, fluorogenic ECE substrate]",–,metabolites produced when incubated with ECE [1]: only two metabolites
140 and 133,455 and 459,"CC(C)C[C@H](NP(=O)(O)O[C@@H]1O[C@@H](C)[C@H](O)[C@@H](O)[C@H]1O)C(=O)N[C@@H](Cc1c[nH]c2ccccc12)C(=O)O [P, phosphoramidon]",–,"inhibitory behavior on ECE ([4]; Table II, 10^−6 M and 5 × 10^−6 M): entirely verified"
1043 and 1077,1124 and 1106,"O=C(O)CC(=O)NC(CS)Cc1ccccc1 (centres unmarked) [R, retrothiorphan]",–,–
1095 and 1119,1117 and 1093,"NCCCC[C@H](N[C@@H](CCc1ccccc1)C(=O)O)C(=O)N1CCC[C@H]1C(=O)O [L, lysinopril]",–,–
–,–,"Ac-Ile-Ile-PyA (Ac-Ile-Ile-[PyA″]) [peptide 1m, fluorescent metabolite of 1s formed by ECE]",not modified over several hours,–
–,–,"Ac-Ser-Gly-PyA-Lys-Ala (Ac-SG[PyA″]KA) [peptide 3m, fluorescent metabolite of 3s formed by ECE]",not modified over several hours,–

Molecule,fluorescence intensity measured for each well ([4]; compound at 5 × 10^−6 M),fluorescence intensity measured for each well ([4]; compound at 10^−6 M),fluorescence of the metabolite over time [3],also measured
"C[C@H](CS)C(=O)N1CCC[C@H]1C(=O)O [C, captopril]",1128 and 1121,1086 and 1089,–,–
"O=C(O)CNC(=O)C(CS)Cc1ccccc1 (centres unmarked) [T, thiorphan]",1109 and 1121,1124 and 1127,–,–
